What was measured:
[1] = system: rats with tibial cancer pain; assay: van Frey mechanical pain threshold in rats with tibial cancer pain (Walker256); type: in vivo, rat
Method: Walker rat breast cancer cells were purchased from Shanghai Institute of Biomedical Engineering. The abdominal cavity of female Wistar rats of 70-80 g was inoculated with 1 ml of ascites tumor (about 2×10^7 cells /ml). After 7-10 days, 5 ml of ascites was extracted and centrifuged for 3 minutes (1300 rpm). After precipitation, washing was performed with 10 ml PBS, and then centrifuged and precipitated again. Then, resuspending was performed with PBS, counting was performed, the cell concentration was adjusted to 1×10^7 cells/ml by PBS and placed in an ice box for later use.
Rats were anesthetized by intraperitoneal injection of 10% chlorate hydrate (4 ml/kg body weight), a skin was prepared at the right knee joint, and the skin was disinfected with 75% alcohol. The knee joint was fixed with the left hand to make the skin on its surface tense. A hole with a depth about 1 cm was drilled along the longitudinal axis of tibia at the medial edge of patellar ligament of the knee joint with a 7# needle. Then, a microsampler with tumor cells (before injection, 1 μl of air, 2 μl of gelatin sponge aqueous solution, 1 μl of air, 4 μl of tumor cells or PBS were inhaled in turn) was used, and 4 μl of tumor cells was injected into the tibia bone marrow cavity; The rats in the control group were injected with the same amount of PBS, and finally all of them were sealed with 2 μl of gel sponge solution. After injection, the needles were kept for 1 minute to prevent the injection from oozing out.
Rats were divided into two groups: a PBS injection control group and a Walker256 model group. The radiation paw withdrawal latency (PWL) was measured before modeling as the basic pain threshold, and the PWL was measured every other day after modeling as the thermal hyperalgesia threshold. At the same time, the mechanical pain caused by von Frey filament was measured. The threshold of mechanical pain was measured before modeling as the basic pain threshold, and the threshold of mechanical allodynia was measured every other day after modeling.
After successfully establishing the model of tibia cancer pain, continuous intragastric administration was performed for 12 days. The rats in the model group were intragastrically given the same volume of normal saline.

mice [2] = assay: Analgesic experiment of writhing method in mice (acetic acid); type: in vivo, Kunming mice; details: 15 mg/kg once on the day of the experiment
mice [3] = assay: Analgesia experiment on a hot plate in mice; type: in vivo, Kunming mice; details: 15 mg/kg
Description: The mouse hot plate method is a classic method for screening analgesics. Its principle is to put the mouse on a hot plate heated to a constant temperature of (55±0.1 DEG C.) in advance, and when the foot of the mouse is stimulated by the hot plate to produce pain, the time required for foot licking is taken as the pain threshold, which is taken as the observation index, and the changes of threshold before and after medication are compared to evaluate the analgesic effect.
Before the experiment, the mice in each group were given intragastric administration. The mice in the blank control group were given the same volume of normal saline every day for 3 consecutive days.
The mice were put on a hot plate pain meter heated to 55 DEG C. in advance, and the time from putting into the hot plate to licking hind feet was recorded with a stopwatch as the pain threshold of the mice. […] It was measured once at 30, 60, 90 and 120 min after administration. After the end of the experiment, the percentage of pain threshold increase was calculated according to the measured average value of pain threshold. The percentage of pain threshold increase %=(an average pain threshold after administration−an average pain threshold before administration)÷the average pain threshold before administration×100%.

[4] = literature reports; cited from earlier work
[5] = system: rats of the LPS fever model; assay: LPS-induced common fever model in rats; type: in vivo, Sprague Dawley rats; details: 30 mg/kg intragastric
Method: Male healthy Sprague Dawley rats (SPF), with a weight of 220-260 g, purchased from Liaoning Changsheng Biotechnology Co., Ltd., with a license number of SCXK (Liao) 2015-0001. […] Sodium chloride injection ([…], 500 mL): (Shijiazhuang No.4 Pharmaceutical Co., Ltd), Batch number: 101217406; 0.9% sodium chloride injection was dissolved and diluted to 1 mg/ml, then packed in EP tubes and stored at −80 DEG C. for later use; immediately before use, it was diluted with 0.9% sodium chloride injection into a sterile injection of 10 μg /ml(100 μg /kg). Male SD rats, with a weight of 220-260 g, were fed adaptively for 3 days, ate food and drank water freely with 12 hours of day-night circle. […] Each group was administrated with the drug based on 1 ml/100 g body weight by intragastric administration.

[6] = system: rats of the dry yeast fever model; assay: Common fever model of rats induced by dry yeast; type: in vivo; details: 30 mg/kg intragastric
Method: Male SD rats, with a weight of 220-260 g, were fed adaptively for 3 days, ate food and drank water freely with 12 hours of day-night circle. […] Each group was administrated with the drug based on 1 ml/100 g body weight by intragastric administration. […] Operating steps: except that the LPS in Experiment 1 was replaced by the dry yeast, other experimental operating steps and dosage selections were the same as those in Experiment 1.

[7] = 15 mg/kg on the last day, same side

Compound: CN1CC[C@]23c4c5ccc(O)c4O[C@H]2[C@@H](O)C=C[C@H]3[C@H]1C5.Cl [positive control, morphine hydrochloride]
- analgesic rate, opposite side ([1]; 15 mg/kg on the last day): 133.3%
- van Frey mechanical pain threshold, opposite side ([1]; 15 mg/kg on the last day): 6.3 ± 0.5 g
- analgesic rate, same side [1, 7]: 205.5%
- van Frey mechanical pain threshold, same side [1, 7]: 5.5 ± 0.2 g
- analgesic rate, opposite side ([1]; 80 mg/kg intragastric, 12 days): 125.9%
- van Frey mechanical pain threshold, opposite side ([1]; 80 mg/kg intragastric, 12 days): 6.1 ± 0.2 g
- van Frey mechanical pain threshold, same side ([1]; 80 mg/kg intragastric, 12 days, same side): 5.2 ± 0.6 g
- analgesic rate (mice [2]): 45.83%
- times of writhing (mice [2]): 30.17 ± 6.14 n
- Percentage of pain threshold increase (mice [3]; 30 min): 68.11%
- Percentage of pain threshold increase (mice [3]; 60 min): 54.01%
- Percentage of pain threshold increase (mice [3]; 90 min): 51.90%
- Percentage of pain threshold increase (mice [3]; 120 min): 38.17%

Compound: spiramycin
- absolute oral bioavailability [4]: 30-40%

Compound: CC(C)Cc1ccc(C(C)C(=O)O)cc1 (centres unmarked) [ibuprofen, Ibuprofen]
- after administration ΔT ([5]; 1 h): 0.27 ± 0.27 °C
- after administration ΔT ([5]; 2 h): 0.33 ± 0.43 °C
- after administration ΔT ([5]; 4 h): 0.34 ± 0.38 °C
- after administration ΔT ([5]; 6 h): 1.23 ± 0.24 °C
- after administration ΔT ([5]; 8 h): 1.32 ± 0.24 °C
- after administration ΔT ([5]; 10 h): 1.23 ± 0.39 °C
- after administration ΔT ([6]; 1 h): 0.26 ± 0.26 °C
- after administration ΔT ([6]; 2 h): 0.40 ± 0.31 °C
- after administration ΔT ([6]; 4 h): 0.54 ± 0.38 °C
